The results in this text go back to paper PMC4267740, “Unprecedented Therapeutic Potential with a Combination of A2A/NR2B Receptor Antagonists as Observed in the 6-OHDA Lesioned Rat Model of Parkinson's Disease” (PLoS ONE, 2014).

“Also recorded” adds a separate entry of the source.

What all share (assay type): in vivo, rat
For test [1], the system named is unilateral 6-OHDA-lesioned rats. The test can be described thus: Distance traveled in actometers, monotherapy (without L-Dopa). The procedure:
(§1) To protect norepinephrinergic neurons, animals were administered imipramine HCl (Sigma) 15 minutes before surgery. They were subsequently anesthetized with ketamine (Ceva, 75 mg/kg) and xylazine (Bayer, 10 mg/kg) and placed in stereotaxic frame (David Kopf Instrument). 6-OHDA was injected into the right ascending medial forebrain bundle at the following coordinates (in mm) relative to bregma and surface of the dura, AP = −3.5, ML = −1.5, DV = −8.7. Each rat received one injection of 6-OHDA (4 µg/µl) over a period of 5 minutes (0.5 µl/min) for a total of 10 µg per rat. Animals were monitored for 3 weeks to ensure full recovery and habituation to the environment and experimenters.
(§2) On day 21 post surgery, all rats were challenged with a small dose of subcutaneously administered apomorphine (Sigma, 0.05 mg/kg). Rats showing more than 90 contralateral rotations (360°) over a 45-minute recording period were included in the study. […] For each experiment, rats were allocated to the different experimental groups in order to get the same mean level of basal activity measured at the apomorphine challenge amongst the different experimental groups.
(§3) Drug-naïve separate rats were tested individually in clear acrylic chambers (LE8811 IR, Panlab). Locomotion was detected and measured by 16 infrared light-beam sensors located on each side of the enclosure at a height of 3 cm. Sensors were spaced such that the light beams formed a matrix of 15×15 squares over the surface. Activity counts were recorded on a computer and Acti-Track software (Actitrack, Panlab) was used to convert raw data into “distance traveled” and “rearing counts” for analysis as relevant dependent variables.
(§4) Six different combinations of A2A/NR2B antagonists were tested without L-Dopa. For each combination, there were four different procedures: vehicle only; A2A antagonist followed by vehicle; vehicle followed by the NR2B antagonist and A2A antagonist followed by the NR2B antagonist. The drugs, doses and combinations are described in Table 3. After drug administration, rats were placed in actometers (open-field) for monitoring the general level of motor activity (distance traveled and rearing counts).
(§5) Before undertaking the study, each A2A and NR2B antagonist was tested individually. The doses were selected on the basis of preliminary dose-response curves performed separately for each drug and submaximal dose (i.e. response observed is not at its maximal level) of each drug was selected for the combination studies. The two drugs were administered separately via an intraperitoneal (ip) injection with a 2-minute interval between the two drugs. Five minutes after the second injection, animals were placed in the testing cage for behavioural recording. Due to formulation and exposure issues, Tozadenant and Radiprodil had to be administered orally and therefore recording was started 60 minutes post dosing at this corresponds to maximum plasma concentrations. Eight drug-naïve animals were used for each of the four procedures; 32 in total for each combination. All behavioral experiments were conducted between 8.00 AM and 2.00 PM at the latest. Preliminary pharmacokinetic assays investigated the plasma and brain disposition of selected drugs administered alone or in combination (ie. Tozadenant/Radiprodil, and Sch-58261/Co-101244; 3 animals per group). Tozadenant and Radiprodil were measured in samples obtained 60 minutes after single oral administration at 30 mg/kg. Sch-58261 and Co-101244 were measured in samples collected 90 min after single intraperitoneal administration at 3 mg/kg.
(§6) The effects of A2A and NR2B antagonists on the level of motor activity (i.e. distance traveled and rearing counts) were assessed with three-way mixed ANOVA, combining the A2A receptor antagonist (2 levels, vehicle and the A2A drug) and the NR2B antagonist (2 levels, vehicle and the NR2B drug) as between-group factors with the time as within-subjects factor (6 or 9 levels). […]

Test [2] has the same test system. The test can be described thus: Rearing counts in actometers, monotherapy (without L-Dopa). The procedure:
as §1, §2, §3, §4, §5, §6

For test [3] the test system is unchanged. The test can be described thus: L-Dopa-induced contralateral rotations in rotometers, add-on therapy. The note with it: add-on to L-Dopa 25 mg/kg ip; for Contralateral rotations, drugs alone vs vehicle, time for which significant: 10-min intervals, 120 min recording; for Time for which the drug given separately was active in increasing or prolonging the L-Dopa effect on contralateral rotations: each given separately. The procedure:
as §1, §2
The rats tested one week earlier for general activity (actometers) were once again placed in clear acrylic individual chambers (50×45 cm) with the same treatment (drug and dose) than that previously received plus L-Dopa. Eight chambers were placed on a level, clear glass bottom, held by a robust frame, and were subdivided into four individual test cages of 25×22 cm. A removable acrylic plate served as a lid.
Rotational behaviour was recorded using a home-made computerized system. Rats were fixed in a harness and linked to mechanical sensors connected directly to a computer. Each 360° clock-wise or counter clock-wise turn was automatically recorded for up to 120 minutes at the maximum. Throughout the experiments, rats were allocated to individual test cages.
Four different combinations were administered as add-on treatment to a low active dose of L-Dopa (25 mg/kg, ip) without any dopa decarboxylase inhibitor to avoid any additional pharmacokinetic interaction. The doses of the compounds were selected on the basis of preliminary dose-response curves performed separately for each drug. To avoid ceiling effect with L-Dopa, only submaximal doses of each drug were selected for testing (as it was done previously for monotherapy). Eight L-Dopa naïve animals were tested for each of the four pharmacological condition: vehicle and L-Dopa (25 mg/kg); A2A antagonist followed by vehicle and L-Dopa; vehicle followed by NR2B antagonist and L-Dopa; A2A antagonist followed by NR2B and L-Dopa. Due to the dominance of the L-Dopa-effect on the lesioned striatum, the unilateral 6-OHDA-lesioned rats rotated after the drugs administration and behavioral activity was recorded in rotometers (i.e. level of contralateral rotations).
All drugs were administered i.p. 25 minutes before behavioural recording, except for the Tozadenant and Radiprodil combination which was administered orally 60 minutes before behavioural recording. As Radiprodil was administered orally, L-Dopa was given 45 minutes after the Radiprodil injection whereas for the other combinations L-Dopa was given 15 minutes after the NR2B drug. The drugs, the doses and the combinations given in co-administration to L-Dopa are described in Table 4 .
The impact of treatment with A2A or NR2B receptor antagonists, given alone or in combination, on the effect of L-Dopa on contralateral rotations was also analysed with a three-way mixed ANOVA. The ANOVA included the A2A and the NR2B receptor antagonists (both, 2 levels, vehicle and the drug) as between-group factors combined with time (12 levels) as within-subjects factor. […] The ability of the combination to increase and prolong the activity of L-Dopa was also explored. Consequently, drug effects were analyzed for every 10-min time interval. […]

Where [4] appears, read: Tozadenant 30 mg/kg po, Radiprodil 3 mg/kg po.
Where [5] appears, read: Preladenant 0.1 mg/kg ip, Radiprodil 1 mg/kg ip.
Setting [6] is: Preladenant 0.03 mg/kg ip, Radiprodil 0.3 mg/kg ip.
Setting [7] is: Sch-58261 1 mg/kg ip, Co-101244 1 mg/kg ip.
Where [8] appears, read: Sch-58261 1 mg/kg ip, Merck 22 1 mg/kg ip.
Where [9] appears, read: Sch-58261 0.3 mg/kg ip, Co-101244 1 mg/kg ip.

Regarding `COc1ccc(N2CCOCC2)c2sc(NC(=O)N3CCC(C)(O)CC3)nc12` [Tozadenant], in test [1] (setting [4]), the “Distance traveled, drugs alone vs vehicle, p (Newman-Keuls)” value is “not all drugs when administered alone improved distance traveled; also recorded: Not significant”; the “Distance traveled, drugs main effect, p (three-way mixed ANOVA)” value (shortened to “Distance traveled, drugs main effect, p”) is “p<0.05”; the “Distance traveled, drugs × time effect, p (three-way mixed ANOVA)” value is reported as “p<0.001”. In test [2] (setting [4]), the “Rearing counts, drugs alone vs vehicle, p (Newman-Keuls)” value was “exception; also recorded: Not significant”; the “Rearing counts, drugs main effect, p (three-way mixed ANOVA)” value (shortened to “Rearing counts, drugs main effect, p”) is “p<0.01”; the “Rearing counts, drugs × time effect, p (three-way mixed ANOVA)” value (“Rearing counts, drugs × time effect, p” below) is recorded as “p<0.001”. In test [3] (setting [4]), the “Contralateral rotations, drugs alone vs vehicle, p (planned contrasts on each 10-min interval)” value is < 0.05; the “Contralateral rotations, drugs main effect, p (three-way mixed ANOVA)” value was “p<0.001”; the “Contralateral rotations, drugs × time effect, p (three-way mixed ANOVA)” value is reported as “p<0.001”; the “Contralateral rotations, drugs alone vs vehicle, time for which significant” value is 80 ′. For the same compound, in test [3] (setting [4]), the “Time for which the drug given separately was active in increasing or prolonging the L-Dopa effect on contralateral rotations” value amounted to 80 min.

Take `O=C(Nc1ccc2[nH]c(=O)oc2c1)C(=O)N1CCC(Cc2ccc(F)cc2)CC1` [Radiprodil]: in test [1] (setting [5]), the “Distance traveled, drugs main effect, p” value is “p<0.001” and the “Distance traveled, drugs × time effect, p (three-way mixed ANOVA)” value is on record as “p<0.001”. In addition, in test [1] (setting [4]), the “Distance traveled, drugs alone vs vehicle, p (Newman-Keuls)” value was “not all drugs when administered alone improved distance traveled; also recorded: Not significant”; the “Distance traveled, drugs main effect, p” value is recorded as “p<0.01”; the “Distance traveled, drugs × time effect, p (three-way mixed ANOVA)” value is given as “p<0.001”. In addition, in test [2] (setting [5]), the “Rearing counts, drugs alone vs vehicle, p (Newman-Keuls)” value was “Radiprodil, not significant”; the “Rearing counts, drugs main effect, p” value is “p<0.001”; the “Rearing counts, drugs × time effect, p” value was “p<0.01”. In test [2] (setting [4]), the “Rearing counts, drugs alone vs vehicle, p (Newman-Keuls)” value was “Not significant”; the “Rearing counts, drugs main effect, p” value is “p<0.01”; the “Rearing counts, drugs × time effect, p” value is “p<0.001”. The “Rearing counts, drug alone in comparison to vehicle rats” value in test [2] (drug administered alone) is recorded as “not”. Besides, in test [3] (setting [6]), the “Contralateral rotations, drugs alone vs vehicle, p (planned contrasts on each 10-min interval)” value is “Not significant”; the “Contralateral rotations, drugs main effect, p (three-way mixed ANOVA)” value is given as “Not significant”; the “Contralateral rotations, drugs × time effect, p (three-way mixed ANOVA)” value is given as “p<0.01”. In test [3] (setting [4]), the “Contralateral rotations, drugs alone vs vehicle, p (planned contrasts on each 10-min interval)” value was < 0.05; the “Contralateral rotations, drugs main effect, p (three-way mixed ANOVA)” value is “p<0.01”; the “Contralateral rotations, drugs × time effect, p (three-way mixed ANOVA)” value was “p<0.001”; the “Contralateral rotations, drugs alone vs vehicle, time for which significant” value was 20 ′. For the same compound, the “Time for which the drug given separately was active in increasing or prolonging the L-Dopa effect on contralateral rotations” value in test [3] (setting [4]) stood at 20 min.

Consider `Nc1nc2c(cnn2CCc2ccccc2)c2nc(-c3ccco3)nn12` [Sch-58261], for which, in test [1] (setting [7]), the “Distance traveled, drugs alone vs vehicle, p (Newman-Keuls)” value was “Both p<0.01”; the “Distance traveled, drugs main effect, p” value is recorded as “p<0.001”; the “Distance traveled, drugs × time effect, p (three-way mixed ANOVA)” value was “p<0.001”. For the same compound, in test [1] (setting [8]), the “Distance traveled, drugs alone vs vehicle, p (Newman-Keuls)” value was “Both p<0.01”; the “Distance traveled, drugs main effect, p” value is listed as “p<0.001”; the “Distance traveled, drugs × time effect, p (three-way mixed ANOVA)” value is recorded as “Not significant”. Further, in test [1] (drug administered alone), the “Distance traveled, drug alone in comparison to vehicle-treated controls” value is recorded as “significant increase”. Moreover, in test [2] (setting [7]), the “Rearing counts, drugs alone vs vehicle, p (Newman-Keuls)” value is “Both p<0.05”; the “Rearing counts, drugs main effect, p” value is reported as “p<0.001”; the “Rearing counts, drugs × time effect, p” value is reported as “p<0.001”. In test [2] (setting [8]), the “Rearing counts, drugs alone vs vehicle, p (Newman-Keuls)” value is recorded as “Sch-58261 p<0.05”; the “Rearing counts, drugs main effect, p” value is “p<0.001”; the “Rearing counts, drugs × time effect, p” value is reported as “p<0.001”. Besides, in test [3] (setting [9]), the “Contralateral rotations, drugs main effect, p (three-way mixed ANOVA)” value is “p<0.05” and the “Contralateral rotations, drugs × time effect, p (three-way mixed ANOVA)” value is “p<0.001”.
